Test results from publication PMC9138790 (2022).

System: polyA (polyadenine) (DNA, polymer) A
Test: differential pulse voltammetry, dAdo oxidation signal decrease
Settings: 0.1 M acetate buffer pH 4.7; 10 µg/mL CIN, 20 min; dAdo signal falls to S% 50

binding: yes
Structure (SMILES): C[C@@H](NCCCc1cccc(C(F)(F)F)c1)c1cccc2ccccc12
